Organism: Rattus norvegicus
Experiment: Open TG-GATES - Regimen: Daily Repeat
Assay type: toxicity, organism-based, Sprague-Dawley
Parameters: regimen Daily Repeat, gender Male, age 6 weeks
Details: in vivo, po, route gavage; for Bas / Eos / Fbg / MCHC / Neu / Plat / RBC / Ret / WBC / Lym / MCH / MCV / Mono: tissue Blood; for KIDNEY_L / KIDNEY_R / KIDNEY_TOTAL: tissue Kidney; for LIVER: tissue Liver
[1] = 0 mg/kg, 72 h, dose level Control, time 3 day
[2] = 0 mg/kg, 72 h, tissue Plasma, dose level Control, time 3 day
[3] = 0 mg/kg, […], dose level Control, time 14 day
[4] = 0 mg/kg, […], dose level Control, time 28 day
[5] = 0 mg/kg, […], tissue Plasma, dose level Control, time 14 day
[6] = 0 mg/kg, […], tissue Plasma, dose level Control, time 28 day
[7] = 1 mg/kg, 72 h, dose level Low, time 3 day
[8] = 1 mg/kg, 72 h, tissue Plasma, dose level Low, time 3 day
[9] = 1 mg/kg, […], dose level Low, time 14 day
[10] = 1 mg/kg, […], dose level Low, time 28 day
[11] = 1 mg/kg, […], tissue Plasma, dose level Low, time 14 day
[12] = 1 mg/kg, […], tissue Plasma, dose level Low, time 28 day

Work on O=C(O)Cc1ccccc1Nc1c(Cl)cccc1Cl [DICLOFENAC] yielded a TERMINAL_BW [1] of 237.4 g, a Bas [1] of 0% and an Eos [1] of 1%. The Fbg [1] was 222.6 mg/dL, the MCHC [1] was 34.5% and the Neu [1] was 21%. It also gave a Plat [1] of 120.1 x10_4/uL, an RBC [1] of 626.6 x10_4/ul and a Ret [1] of 4.9%. It also gave a WBC [1] of 105.4 x10_2/uL, a KIDNEY_L [1] of 1 g and a KIDNEY_R [1] of 1 g. The KIDNEY_TOTAL [1] was 2 g, the ALP [2] was 974.8 IU/L and the AST [2] was 65 IU/L. It also gave a CRE [2] of 0.4 mg/dL, a DBIL [2] of 0.1 mg/dL and a GLC [2] of 193 mg/dL. It also gave an IP [2] of 7.8 mg/dL, an LDH [2] of 163.8 IU/L and a PL [2] of 160.6 mg/dL. It also gave a TBIL [2] of 0.2 mg/dL, a TC [2] of 74 mg/dL and a TG [2] of 141 mg/dL. For the same compound, the TP [2] was 5.6 g/dL, the gamma-GTP [2] was 1.2 IU/L and the TERMINAL_BW [3] was 317.2 g. For the same compound, the TERMINAL_BW [4] was 396.3 g, the Bas [3] was 0% and the Eos [3] was 0.8%. For the same compound, the Fbg [3] was 221.6 mg/dL, the Lym [3] was 80.8% and the MCH [3] was 21.5 pg. The MCHC [3] was 35.9%, the MCV [3] was 59.9 fL and the Mono [3] was 2%. The Plat [3] was 106.7 x10_4/uL, the Ret [3] was 4% and the WBC [3] was 92.1 x10_2/uL. It also gave a Bas [4] of 0%, a Fbg [4] of 219.8 mg/dL and a Lym [4] of 84.2%. The MCH [4] was 20.1 pg, the MCHC [4] was 36.1% and the MCV [4] was 55.9 fL. The Neu [4] was 11.4%, the Plat [4] was 102.6 x10_4/uL and the RBC [4] was 801.6 x10_4/ul. For the same compound, the Ret [4] was 2.3%, the WBC [4] was 127.9 x10_2/uL and the KIDNEY_L [3] was 1.3 g. It also gave a KIDNEY_R [3] of 1.3 g, a KIDNEY_TOTAL [3] of 2.6 g and a KIDNEY_L [4] of 1.4 g. For the same compound, the KIDNEY_R [4] was 1.4 g, the KIDNEY_TOTAL [4] was 2.8 g and the LIVER [4] was 15.7 g. For the same compound, the ALP [5] was 720.8 IU/L, the ALT [5] was 31.2 IU/L and the CRE [5] was 0.4 mg/dL. It also gave a DBIL [5] of 0.1 mg/dL, a GLC [5] of 220.2 mg/dL and an IP [5] of 7.2 mg/dL. The K [5] was 3.7 meq/L, the LDH [5] was 170 IU/L and the Na [5] was 140.2 meq/L. It also gave a PL [5] of 143.8 mg/dL, an RALB [5] of 3.4 g/dL and a TBIL [5] of 0.2 mg/dL. The TC [5] was 64.2 mg/dL, the TP [5] was 6 g/dL and the gamma-GTP [5] was 1 IU/L. The ALP [6] was 600.6 IU/L, the AST [6] was 57 IU/L and the CRE [6] was 0.5 mg/dL. For the same compound, the Ca [6] was 10.3 mg/dL, the Cl [6] was 101.8 meq/L and the DBIL [6] was 0.1 mg/dL. The GLC [6] was 240.8 mg/dL, the IP [6] was 6.5 mg/dL and the K [6] was 3.5 meq/L. It also gave an LDH [6] of 146.4 IU/L, a Na [6] of 140.4 meq/L and a PL [6] of 151.4 mg/dL. For the same compound, the RALB [6] was 3.6 g/dL, the TBIL [6] was 0.2 mg/dL and the TC [6] was 68.8 mg/dL. The TG [6] was 145.6 mg/dL, the TP [6] was 6.3 g/dL and the gamma-GTP [6] was 0.8 IU/L. It also gave a TERMINAL_BW [7] of 235.7 g, a Bas [7] of 0% and an Eos [7] of 1%. For the same compound, the Fbg [7] was 217.6 mg/dL, the Mono [7] was 3.4% and the Plat [7] was 125.8 x10_4/uL. The RBC [7] was 633.8 x10_4/ul, the Ret [7] was 5% and the WBC [7] was 89.1 x10_2/uL. The KIDNEY_L [7] was 1 g, the KIDNEY_R [7] was 1 g and the KIDNEY_TOTAL [7] was 2.1 g. The LIVER [7] was 11 g, the ALP [8] was 1075.6 IU/L and the AST [8] was 66 IU/L. For the same compound, the CRE [8] was 0.4 mg/dL, the DBIL [8] was 0.1 mg/dL and the GLC [8] was 190 mg/dL. For the same compound, the LDH [8] was 173.4 IU/L, the PL [8] was 164.2 mg/dL and the TBIL [8] was 0.2 mg/dL. It also gave a TC [8] of 75.8 mg/dL, a TP [8] of 5.7 g/dL and a gamma-GTP [8] of 1 IU/L. For the same compound, the TERMINAL_BW [9] was 319.9 g, the TERMINAL_BW [10] was 385.2 g and the Bas [9] was 0%. It also gave an Eos [9] of 1%, a Fbg [9] of 224.4 mg/dL and a Lym [9] of 78.4%. For the same compound, the MCHC [9] was 35.7%, the Plat [9] was 114.5 x10_4/uL and the RBC [9] was 699 x10_4/ul. For the same compound, the Ret [9] was 3.8%, the WBC [9] was 100.3 x10_2/uL and the Bas [10] was 0%. The Eos [10] was 1.4%, the Lym [10] was 80% and the MCH [10] was 20.1 pg. The MCHC [10] was 36.1%, the MCV [10] was 55.6 fL and the Neu [10] was 15.4%. The Plat [10] was 108.4 x10_4/uL, the RBC [10] was 796.2 x10_4/ul and the Ret [10] was 1.8%. It also gave a WBC [10] of 95.4 x10_2/uL, a KIDNEY_L [9] of 1.3 g and a KIDNEY_R [9] of 1.3 g. It also gave a KIDNEY_TOTAL [9] of 2.6 g, a KIDNEY_L [10] of 1.4 g and a KIDNEY_R [10] of 1.4 g. The KIDNEY_TOTAL [10] was 2.8 g, the LIVER [10] was 14.8 g and the ALP [11] was 890.6 IU/L. It also gave an ALT [11] of 35.2 IU/L, an AST [11] of 66.2 IU/L and a CRE [11] of 0.4 mg/dL. The Ca [11] was 10.6 mg/dL, the DBIL [11] was 0.1 mg/dL and the GLC [11] was 218.4 mg/dL. The IP [11] was 7.8 mg/dL, the K [11] was 3.7 meq/L and the LDH [11] was 192.8 IU/L. For the same compound, the Na [11] was 140.8 meq/L, the PL [11] was 173.4 mg/dL and the RALB [11] was 3.4 g/dL. For the same compound, the TBIL [11] was 0.2 mg/dL, the TC [11] was 81.4 mg/dL and the TG [11] was 151.6 mg/dL. The TP [11] was 5.9 g/dL, the gamma-GTP [11] was 0.4 IU/L and the ALP [12] was 610.6 IU/L. It also gave an ALT [12] of 29.4 IU/L, an AST [12] of 61.4 IU/L and a CRE [12] of 0.4 mg/dL. For the same compound, the DBIL [12] was 0.088 mg/dL, the GLC [12] was 215.8 mg/dL and the IP [12] was 6.7 mg/dL. The K [12] was 3.5 meq/L, the LDH [12] was 165.4 IU/L and the PL [12] was 141.4 mg/dL. The RALB [12] was 3.4 g/dL, the TBIL [12] was 0.2 mg/dL and the TP [12] was 6.2 g/dL. For the same compound, the gamma-GTP [12] was 0.2 IU/L.

— ChEMBL document CHEMBL3885861, “Open TG-GATES”
